# What was measured:
# ventral pallidal neurons = assay: Electrophysiology of ventral pallidal neurons, i.v. METH dose-response in chloral hydrate-anesthetized rats; assay type: in vivo, rat
# Method: Based on the biochemical results and because the ventral pallidum contains one of the highest concentrations of 5-HT in the brain, electrophysiological evaluations of this region in rats behaviorally sensitized to METH were conducted (with a 5-day once daily treatment of 2.5 mg/kg). The acute challenge was intravenously administered METH (via a tail vein cannula) as previously used by T. C. Napier's lab ^e.g., [34] where the drug is given in a cumulative dosing fashion such that each dose, administered in 2 min-intervals, essentially doubles the previous dose. METH was tested using a range of 0.06-4.0 mg/kg in saline vehicle. […] Moreover, this approach establishes if systemic administration of METH, in doses that include those producing behavioral sensitization, are sufficient promote sensitized cellular responding and thus allows for direct comparisons of cellular responding to behavioral outcomes. After a 3-day withdrawal, the ability of intravenously administered METH or 1-(2,5-dimethoxy-4-iodophenyl)-2-aminopropane (DOI) to increase ventral pallidal cell firing was enhanced in chloral hydrate-anesthetized rats, as shown by a leftward shift in the dose-response curve with a […] and an increase in response efficacy for both agonists (FIG. 16) and this occurred without any changes in the portion of neurons showing a rate increase or decrease to the acute METH challenge.
# Electrophysiological assessment of the ventral pallidum was also conducted 30 days after repeated METH. […] For each experiment, an i.v. METH dose-response curve (METH was tested using a range of 0.06-2.0 mg/kg in saline vehicle) was generated for one ventral pallidal neuron per rat at 30 days withdrawal from repeated METH. Based on the analysis of curves where there was an excitatory effect of i.v. METH on ventral pallidal neurons (171 animals), there was a diminished excitatory effect of i.v. METH in the ventral pallidum of rats that were pretreated with METH only. This is illustrated by both the curves and corresponding Emax data in FIG. 17. This decrease only at long-term withdrawal mirrors the reduction seen in pallidal pCREB only after 14, but not at 3 day withdrawal from repeated METH (see Example III).
# [1] = test system: cocaine-induced behavioral sensitization; settings: given in acute withdrawal period from cocaine dosing; cited from earlier work
# METH-conditioned rats = assay: METH-induced conditioned place preference (CPP) with simultaneous motor sensitization; assay type: in vivo, rat; settings: single home cage injection 0.03, 0.1 or 1.0 mg/kg SDZ SER 082 24 h before test (FIG. 13)
# Text: The CPP box (Accuscan, Columbus, Ohio) consists of three Plexiglas compartments, each with distinct visual and tactile cues (on one side, patterned floor with object attached and horizontally striped wall; on the opposite side, smooth floor with no object and vertically striped walls; center—uniformly white floor and walls). The center compartment can be separated from the left and right compartments by removable guillotine doors. Motor activity in three dimensional space, and time spent, in each compartment is detected by two sets of photobeams set at different heights from the floor. Drug conditioning is performed by administering METH to the rat while it is in one compartment, and on the alternating day, saline is administered while the rat is confined to the opposite compartment. Confinement was achieved by blocking access to other compartments using the guillotine door. The center compartment is not seen by the rat during conditioning, and all conditioning sessions last for 45 min.
# The inventors have determined that the number of METH-pairings, and the dose of METH, dictate the strength of the drug-environment association (i.e., the magnitude of salience attribution). The test for CPP is determined in a METH-free state (i.e., at least 48 hr after that last METH pairing), at which time the rats are placed in the center compartment and allowed free access to all compartments for 30 min, and the time spent in each compartment is the index of preference. The inventors have determined that the number of METH-pairings, and the dose of METH, dictate the strength of the drug-environment association (i.e., the magnitude of salience attribution) and thus the amount of time spent in the compartment previously paired with METH (FIG. 7), as well as persistence of this effect (i.e., how long it lasts; FIG. 8A). METH-induced motor sensitization can be assessed in several ways, including assessing the capacity of the rat to express an enhanced motor response to an acute METH challenge (FIGS. 9 & 10A).
# To efficiently apply this approach to testing of 5-HT2A/2C antagonists, we determined that single pairing protocols of the CPP paradigm can be used to predict efficacy outcomes of 5-HT2A/2C antagonists in long-term tests on these drugs evaluating their capacity to nullify the persistent enhanced salience induced by METH. […] Thus, these protocols should help predict the capacity of novel therapeutic targets to halt a common problem of drug relapse, i.e., the ability of re-exposure to drugs like METH to immediately reinstate their abuse.
# 5-HT1A = target: T1, 5-HT1A (Homo sapiens, UniProt P08908); settings: read-out: receptor affinity (Ki) 5-HT1A; cited from earlier work
# T1 sequence (P08908 1-422): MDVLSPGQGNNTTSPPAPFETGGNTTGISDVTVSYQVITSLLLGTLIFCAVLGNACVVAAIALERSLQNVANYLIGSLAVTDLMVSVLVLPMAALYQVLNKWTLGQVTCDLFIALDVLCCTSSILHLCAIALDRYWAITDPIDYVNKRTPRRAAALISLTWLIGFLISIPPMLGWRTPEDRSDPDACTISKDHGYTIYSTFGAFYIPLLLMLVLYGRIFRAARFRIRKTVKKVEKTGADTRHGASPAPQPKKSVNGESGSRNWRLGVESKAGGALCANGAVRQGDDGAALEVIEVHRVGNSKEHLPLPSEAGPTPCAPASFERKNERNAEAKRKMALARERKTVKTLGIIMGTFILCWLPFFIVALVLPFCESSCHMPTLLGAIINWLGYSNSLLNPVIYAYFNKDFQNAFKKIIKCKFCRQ
# 5-HT2A = 5-HT2A (Homo sapiens, UniProt P28223); settings: read-out: receptor affinity (Ki) 5-HT2A; cited from earlier work
# 5-HT2C = target: T2, 5-HT2C (Homo sapiens, UniProt P28335); settings: read-out: receptor affinity (Ki) 5-HT2C; cited from earlier work
# T2 sequence (P28335 33-458): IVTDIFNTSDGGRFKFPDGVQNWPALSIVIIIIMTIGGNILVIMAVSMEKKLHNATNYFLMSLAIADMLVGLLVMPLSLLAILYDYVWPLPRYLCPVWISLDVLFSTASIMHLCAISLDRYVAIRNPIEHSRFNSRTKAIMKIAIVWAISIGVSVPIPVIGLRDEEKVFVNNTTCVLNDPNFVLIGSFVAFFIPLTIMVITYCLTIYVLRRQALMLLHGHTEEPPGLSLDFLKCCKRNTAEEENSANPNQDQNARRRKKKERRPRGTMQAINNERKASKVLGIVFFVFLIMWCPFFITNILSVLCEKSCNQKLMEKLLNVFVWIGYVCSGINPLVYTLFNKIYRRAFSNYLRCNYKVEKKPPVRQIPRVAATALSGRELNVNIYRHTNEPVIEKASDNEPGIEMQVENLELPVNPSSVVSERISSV
# 5-HT3 = target: T3, 5-HT3 (Homo sapiens, UniProt P46098); settings: read-out: receptor affinity (Ki) 5-HT3; cited from earlier work
# T3 sequence (P46098 24-478): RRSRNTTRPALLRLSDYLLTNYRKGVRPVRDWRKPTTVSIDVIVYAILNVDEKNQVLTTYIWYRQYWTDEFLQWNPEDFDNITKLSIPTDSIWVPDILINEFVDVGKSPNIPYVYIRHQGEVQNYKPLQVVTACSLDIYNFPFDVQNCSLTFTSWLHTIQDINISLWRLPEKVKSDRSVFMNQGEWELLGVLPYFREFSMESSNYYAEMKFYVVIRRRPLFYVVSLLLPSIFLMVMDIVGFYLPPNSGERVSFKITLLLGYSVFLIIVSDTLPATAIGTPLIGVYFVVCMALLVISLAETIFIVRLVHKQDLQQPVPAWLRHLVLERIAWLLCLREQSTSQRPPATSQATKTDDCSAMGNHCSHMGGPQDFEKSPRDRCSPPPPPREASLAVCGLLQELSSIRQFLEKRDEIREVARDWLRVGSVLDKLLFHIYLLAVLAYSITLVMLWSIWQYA
# D1 = D1 (Homo sapiens, UniProt P21728); settings: read-out: receptor affinity (Ki) D1; cited from earlier work
# D2 = D2 (Homo sapiens, UniProt P14416); settings: read-out: receptor affinity (Ki) D2; cited from earlier work
# a = settings: read-out: receptor affinity (Ki) a; cited from earlier work
# [2] = test system: cocaine seeking behaviors; settings: rats, cited from earlier work; for maintenance of cocaine self-administration: 0.25-1 mg/kg, cocaine 0.5 mg/kg/infusion iv
# METH-sensitized rats = assay: Reversal of METH-induced behavioral sensitization by 5-HT2A/2C antagonists (motor activity after acute METH challenge); assay type: in vivo, rat; settings: ketanserin 1 mg/kg once daily M-F 3 weeks; 1 mg/kg METH challenge w/d day 30/31
# Text: Automation of observational evaluations was accomplished using computerized small animal monitors (AccuScan Instr. Inc., Columbus, Ohio). […] One feature of drug-induced behavioral sensitization is heterogeneity of motor responses and the AccuScan monitors quantify numerous behavioral indices. This is a critical point for the motor profile is exquisitely related to METH dose, the drug history of the rat and observation time. After 3- or 31-days of withdrawal from repeated METH injections, rats were allowed to achieve baseline motor activity with a 30 min habituation period, challenged with 1 mg/kg sc METH and monitored for 90 min.
# Multiple 5-HT2A/2C antagonists with differing pharmacological profiles were tested for their ability to ameliorate METH-induced behavioral sensitization when administered after sensitization has developed. […] The doses were selected based on the antagonists' ability to block 5-HT2A- and 5-HT2C-mediated activity and their pharmacokinetic profiles.
# Sequence of D1 (P21728 whole entry): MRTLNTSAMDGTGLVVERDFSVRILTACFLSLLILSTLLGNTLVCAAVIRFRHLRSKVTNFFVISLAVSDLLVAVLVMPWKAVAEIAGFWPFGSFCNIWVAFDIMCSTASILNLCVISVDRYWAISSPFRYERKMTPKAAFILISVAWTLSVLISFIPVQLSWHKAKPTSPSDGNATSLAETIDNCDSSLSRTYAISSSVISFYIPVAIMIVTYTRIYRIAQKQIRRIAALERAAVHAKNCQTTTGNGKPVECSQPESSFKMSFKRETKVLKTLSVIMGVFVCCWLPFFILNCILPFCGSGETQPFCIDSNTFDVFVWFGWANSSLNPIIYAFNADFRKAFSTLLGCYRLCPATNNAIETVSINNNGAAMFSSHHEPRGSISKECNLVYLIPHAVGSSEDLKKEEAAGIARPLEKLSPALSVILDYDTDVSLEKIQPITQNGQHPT
# Sequence of D2 (P14416 whole entry): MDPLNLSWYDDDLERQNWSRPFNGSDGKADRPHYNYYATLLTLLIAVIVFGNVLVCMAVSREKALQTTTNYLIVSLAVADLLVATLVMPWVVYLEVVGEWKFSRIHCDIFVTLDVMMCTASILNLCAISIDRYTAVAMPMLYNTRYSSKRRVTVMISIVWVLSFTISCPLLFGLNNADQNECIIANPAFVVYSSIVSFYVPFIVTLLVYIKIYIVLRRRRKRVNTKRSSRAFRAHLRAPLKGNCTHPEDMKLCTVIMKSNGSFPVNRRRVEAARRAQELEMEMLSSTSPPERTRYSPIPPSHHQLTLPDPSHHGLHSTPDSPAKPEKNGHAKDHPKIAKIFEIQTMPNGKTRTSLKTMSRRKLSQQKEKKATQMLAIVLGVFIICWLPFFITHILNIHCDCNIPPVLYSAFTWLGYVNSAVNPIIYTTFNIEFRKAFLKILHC
# Sequence of 5-HT2A (P28223 whole entry, species assumed): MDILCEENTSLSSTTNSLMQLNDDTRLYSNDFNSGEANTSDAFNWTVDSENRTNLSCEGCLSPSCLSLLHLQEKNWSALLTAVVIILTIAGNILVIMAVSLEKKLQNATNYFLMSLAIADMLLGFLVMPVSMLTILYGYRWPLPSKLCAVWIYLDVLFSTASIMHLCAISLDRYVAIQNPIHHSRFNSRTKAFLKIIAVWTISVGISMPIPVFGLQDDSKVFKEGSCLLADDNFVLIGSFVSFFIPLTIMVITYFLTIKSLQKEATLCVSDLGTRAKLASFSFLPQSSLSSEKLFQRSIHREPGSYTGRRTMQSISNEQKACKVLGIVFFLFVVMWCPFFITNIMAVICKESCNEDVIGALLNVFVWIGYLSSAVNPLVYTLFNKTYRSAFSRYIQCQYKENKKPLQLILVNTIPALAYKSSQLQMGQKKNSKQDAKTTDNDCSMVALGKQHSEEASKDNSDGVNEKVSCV
structure (smiles),measurement,setting,value
"CN[C@@H](C)Cc1ccccc1 [METH, Methamphetamine]",Emax of Firing Rate Increases of Acute Meth,"ventral pallidal neurons; repeated METH days 1-5, then vehicle, P < 0.05 vs saline + vehicle",161% ± 16% (n = 11)
CN1CCN2c3ccccc3Cc3ccccc3C2C1 (stereo not drawn) [mianserin],established behavioral sensitization to cocaine,[1],reverse the established behavioral sensitization
"CN1CCC2CN3CCc4cccc(c43)C2C1 (stereo not drawn) [SDZ SER 082, 4,5,7a,8,9,10,11,11 a,-octahydro-7H-10-methylindolo[1,7,bc][2,6]-napthyridine]",METH-induced CPP after single pairing of 1.0 METH,METH-conditioned rats,reverses METH-induced CPP in a dose-dependent fashion
same,Ki,5-HT1A,0.8 µM
same,Ki,5-HT2A,0.6 µM
same,Ki,5-HT2C,0.015 µM
same,Ki,5-HT3,> 1 µM
same,Ki,D1,> 1 µM
same,Ki,D2,> 1 µM
same,Ki,a,> 1 µM
same,maintenance of cocaine self-administration,[2],Neither SR 46349B (0.25-1 mg/kg) nor SDZ SER 082 (0.25-1 mg/kg) altered
same,cue- and cocaine priming-induced reinstatement,[2]; cocaine priming 10 mg/kg ip or cue,failed to alter
O=C(c1ccc(F)cc1)C1CCN(CCn2c(=O)[nH]c3ccccc3c2=O)CC1 [ketanserin],effect on horizontal activity and vertical movements in METH-pretreated group,METH-sensitized rats,appeared to potentiate the effect
same,locomotor effects on saline-pretreated animals (acute METH challenge),METH-sensitized rats,did not produce any locomotor effects
same,Emax of Firing Rate Increases of Acute Meth,"ventral pallidal neurons; METH days 1-5, then antagonist, tested 31 days after last METH",177% ± 18% (n = 4)
same,established behavioral sensitization to cocaine,[1],reverse the established behavioral sensitization
Cc1nccn1CC1CCc2c(c3ccccc3n2C)C1=O (stereo not drawn) [ondansetron],established behavioral sensitization to cocaine,[1],reverse the established behavioral sensitization
CN(C)CCO/N=C(/C=C/c1ccc(O)cc1)c1ccccc1F.CN(C)CCO/N=C(/C=C/c1ccc(O)cc1)c1ccccc1F.O=C(O)/C=C/C(=O)O [SR 46349B],maintenance of cocaine self-administration,[2],Neither SR 46349B (0.25-1 mg/kg) nor SDZ SER 082 (0.25-1 mg/kg) altered
